Laboratory results from ChEMBL document CHEMBL3885881, “DrugMatrix”.

Species on record: Rattus norvegicus
Assay: DrugMatrix - Regimen: Daily Repeat
Format: toxicity, organism-based, Sprague-Dawley
Set-up: regimen Daily Repeat, gender Male, age 6-8 weeks
Conditions: in vivo, po, route oral GAVAGE, vehicle .5 % CMC; for ABSOLUTE BASOPHIL / ABSOLUTE EOSINOPHIL / ABSOLUTE LYMPHOCYTE / ABSOLUTE MONOCYTE / ABSOLUTE SEGMENTED NEUTROPHIL / BASOPHIL / EOSINOPHIL / ERYTHROCYTE COUNT / HEMATOCRIT / HEMOGLOBIN / LEUKOCYTE COUNT / LYMPHOCYTE / MEAN CORPUSCULAR HEMOGLOBIN / MEAN CORPUSCULAR HEMOGLOBIN CONCENTRATION / MEAN CORPUSCULAR VOLUME / MONOCYTE / NEUTROPHIL / NUCLEATED RED BLOOD CELLS / PLATELET COUNT: tissue Blood; for ALANINE AMINOTRANSFERASE / ALBUMIN / ALKALINE PHOSPHATASE / ASPARTATE AMINOTRANSFERASE / BLOOD UREA NITROGEN / CARBON DIOXIDE / CHLORIDE / CHOLESTEROL / CREATINE PHOSPHOKINASE / CREATININE / GLUCOSE / LACTATE DEHYDROGENASE / LIPASE / PHOSPHORUS / POTASSIUM / SODIUM / TOTAL BILIRUBIN / TOTAL PROTEIN / URIC ACID: tissue Plasma
[1] = 0 mg/kg, 72 h, dose level Control, time 3 day
[2] = 0 mg/kg, 120 h, dose level Control, time 5 day
[3] = 1 mg/kg, 72 h, dose level Low, time 3 day
[4] = 1 mg/kg, 120 h, dose level Low, time 5 day

SMILES: OC(CCN1CCCCC1)(c1ccccc1)C1CCCCC1 (configuration not stated) [TRIHEXYPHENIDYL]
- ABSOLUTE BASOPHIL [1]: 0 CELLS/uL
- ABSOLUTE EOSINOPHIL [1]: 0 CELLS/uL
- ABSOLUTE LYMPHOCYTE [1]: 10913.67 CELLS/uL
- ABSOLUTE MONOCYTE [1]: 85.33 CELLS/uL
- ABSOLUTE SEGMENTED NEUTROPHIL [1]: 1401 CELLS/uL
- BASOPHIL [1]: 0%
- EOSINOPHIL [1]: 0%
- ERYTHROCYTE COUNT [1]: 5.57 x10E6/uL
- HEMATOCRIT [1]: 35.58%
- HEMOGLOBIN [1]: 13.8 G/DL
- LEUKOCYTE COUNT [1]: 12.4 x10E3/uL
- LYMPHOCYTE [1]: 88%
- MEAN CORPUSCULAR HEMOGLOBIN [1]: 24.78 pg
- MEAN CORPUSCULAR HEMOGLOBIN CONCENTRATION [1]: 38.82 G/DL
- MEAN CORPUSCULAR VOLUME [1]: 63.88 fL
- MONOCYTE [1]: 0.67%
- NEUTROPHIL [1]: 11.33%
- NUCLEATED RED BLOOD CELLS [1]: 0 /100WBC
- PLATELET COUNT [1]: 1162.33 x10E3/uL
- ALANINE AMINOTRANSFERASE [1]: 53 u/L
- ALBUMIN [1]: 4.17 G/DL
- ALKALINE PHOSPHATASE [1]: 374.5 u/L
- ASPARTATE AMINOTRANSFERASE [1]: 89.5 u/L
- BLOOD UREA NITROGEN [1]: 16.33 mg/dL
- CARBON DIOXIDE [1]: 29.17 mmol/L
- CHLORIDE [1]: 97.67 MEQ/L
- CHOLESTEROL [1]: 77 mg/dL
- CREATINE PHOSPHOKINASE [1]: 464.83 u/L
- CREATININE [1]: 0.14 mg/dL
- GLUCOSE [1]: 164 mg/dL
- LACTATE DEHYDROGENASE [1]: 155.5 u/L
- LIPASE [1]: 9.17 u/L
- PHOSPHORUS [1]: 12.4 mg/dL
- POTASSIUM [1]: 6.91 MEQ/L
- SODIUM [1]: 141.47 MEQ/L
- TOTAL BILIRUBIN [1]: 0.2 mg/dL
- TOTAL PROTEIN [1]: 5.95 G/DL
- URIC ACID [1]: 1.72 mg/dL
- ABSOLUTE BASOPHIL [2]: 0 CELLS/uL
- ABSOLUTE EOSINOPHIL [2]: 20.5 CELLS/uL
- ABSOLUTE LYMPHOCYTE [2]: 13871.67 CELLS/uL
- ABSOLUTE MONOCYTE [2]: 60.5 CELLS/uL
- ABSOLUTE SEGMENTED NEUTROPHIL [2]: 980.67 CELLS/uL
- BASOPHIL [2]: 0%
- EOSINOPHIL [2]: 0.17%
- ERYTHROCYTE COUNT [2]: 5.65 x10E6/uL
- HEMATOCRIT [2]: 35.63%
- HEMOGLOBIN [2]: 14.08 G/DL
- LEUKOCYTE COUNT [2]: 14.93 x10E3/uL
- LYMPHOCYTE [2]: 92.83%
- MEAN CORPUSCULAR HEMOGLOBIN [2]: 24.97 pg
- MEAN CORPUSCULAR HEMOGLOBIN CONCENTRATION [2]: 39.55 G/DL
- MEAN CORPUSCULAR VOLUME [2]: 63.13 fL
- MONOCYTE [2]: 0.33%
- NEUTROPHIL [2]: 6.67%
- NUCLEATED RED BLOOD CELLS [2]: 0 /100WBC
- PLATELET COUNT [2]: 1248.17 x10E3/uL
- ALANINE AMINOTRANSFERASE [2]: 45.17 u/L
- ALBUMIN [2]: 4.27 G/DL
- ALKALINE PHOSPHATASE [2]: 405.67 u/L
- ASPARTATE AMINOTRANSFERASE [2]: 74.17 u/L
- BLOOD UREA NITROGEN [2]: 15.5 mg/dL
- CARBON DIOXIDE [2]: 30.17 mmol/L
- CHLORIDE [2]: 100.67 MEQ/L
- CHOLESTEROL [2]: 57 mg/dL
- CREATINE PHOSPHOKINASE [2]: 239.5 u/L
- CREATININE [2]: 0.17 mg/dL
- GLUCOSE [2]: 165.67 mg/dL
- LACTATE DEHYDROGENASE [2]: 90.5 u/L
- LIPASE [2]: 8.83 u/L
- PHOSPHORUS [2]: 12.32 mg/dL
- POTASSIUM [2]: 7.03 MEQ/L
- SODIUM [2]: 142.65 MEQ/L
- TOTAL BILIRUBIN [2]: 0.18 mg/dL
- TOTAL PROTEIN [2]: 6.03 G/DL
- URIC ACID [2]: 1.98 mg/dL
- ABSOLUTE BASOPHIL [3]: 0 CELLS/uL
- ABSOLUTE EOSINOPHIL [3]: 0 CELLS/uL
- ABSOLUTE LYMPHOCYTE [3]: 14884.67 CELLS/uL
- ABSOLUTE MONOCYTE [3]: 0 CELLS/uL
- ABSOLUTE SEGMENTED NEUTROPHIL [3]: 848.67 CELLS/uL
- BASOPHIL [3]: 0%
- EOSINOPHIL [3]: 0%
- ERYTHROCYTE COUNT [3]: 5.35 x10E6/uL
- HEMATOCRIT [3]: 35.77%
- HEMOGLOBIN [3]: 14.27 G/DL
- LEUKOCYTE COUNT [3]: 15.73 x10E3/uL
- LYMPHOCYTE [3]: 94.33%
- MEAN CORPUSCULAR HEMOGLOBIN [3]: 26.7 pg
- MEAN CORPUSCULAR HEMOGLOBIN CONCENTRATION [3]: 39.87 G/DL
- MEAN CORPUSCULAR VOLUME [3]: 66.97 fL
- MONOCYTE [3]: 0%
- NEUTROPHIL [3]: 5.67%
- NUCLEATED RED BLOOD CELLS [3]: 0 /100WBC
- PLATELET COUNT [3]: 1285.67 x10E3/uL
- ALANINE AMINOTRANSFERASE [3]: 51.33 u/L
- ALBUMIN [3]: 4.33 G/DL
- ALKALINE PHOSPHATASE [3]: 449.67 u/L
- ASPARTATE AMINOTRANSFERASE [3]: 84 u/L
- BLOOD UREA NITROGEN [3]: 18.67 mg/dL
- CARBON DIOXIDE [3]: 27.33 mmol/L
- CHLORIDE [3]: 99.67 MEQ/L
- CHOLESTEROL [3]: 76 mg/dL
- CREATINE PHOSPHOKINASE [3]: 344.67 u/L
- CREATININE [3]: 0.14 mg/dL
- GLUCOSE [3]: 149.33 mg/dL
- LACTATE DEHYDROGENASE [3]: 254.67 u/L
- LIPASE [3]: 9.33 u/L
- PHOSPHORUS [3]: 13.83 mg/dL
- POTASSIUM [3]: 6.89 MEQ/L
- SODIUM [3]: 145.2 MEQ/L
- TOTAL BILIRUBIN [3]: 0.17 mg/dL
- TOTAL PROTEIN [3]: 6.23 G/DL
- URIC ACID [3]: 1.77 mg/dL
- ABSOLUTE BASOPHIL [4]: 0 CELLS/uL
- ABSOLUTE EOSINOPHIL [4]: 0 CELLS/uL
- ABSOLUTE LYMPHOCYTE [4]: 16182.67 CELLS/uL
- ABSOLUTE MONOCYTE [4]: 124 CELLS/uL
- ABSOLUTE SEGMENTED NEUTROPHIL [4]: 1360 CELLS/uL
- BASOPHIL [4]: 0%
- EOSINOPHIL [4]: 0%
- ERYTHROCYTE COUNT [4]: 5.66 x10E6/uL
- HEMATOCRIT [4]: 35.77%
- HEMOGLOBIN [4]: 14.3 G/DL
- LEUKOCYTE COUNT [4]: 17.67 x10E3/uL
- LYMPHOCYTE [4]: 91.67%
- MEAN CORPUSCULAR HEMOGLOBIN [4]: 25.23 pg
- MEAN CORPUSCULAR HEMOGLOBIN CONCENTRATION [4]: 40 G/DL
- MEAN CORPUSCULAR VOLUME [4]: 63.13 fL
- MONOCYTE [4]: 0.67%
- NEUTROPHIL [4]: 7.67%
- NUCLEATED RED BLOOD CELLS [4]: 0.33 /100WBC
- PLATELET COUNT [4]: 1182.33 x10E3/uL
- ALANINE AMINOTRANSFERASE [4]: 45.67 u/L
- ALBUMIN [4]: 4.2 G/DL
- ALKALINE PHOSPHATASE [4]: 394 u/L
- ASPARTATE AMINOTRANSFERASE [4]: 78.67 u/L
- BLOOD UREA NITROGEN [4]: 15.67 mg/dL
- CARBON DIOXIDE [4]: 26.67 mmol/L
- CHLORIDE [4]: 101 MEQ/L
- CHOLESTEROL [4]: 73.33 mg/dL
- CREATINE PHOSPHOKINASE [4]: 379.33 u/L
- CREATININE [4]: 0.13 mg/dL
- GLUCOSE [4]: 139.67 mg/dL
- LACTATE DEHYDROGENASE [4]: 370.67 u/L
- LIPASE [4]: 9 u/L
- PHOSPHORUS [4]: 12.93 mg/dL
- POTASSIUM [4]: 6.84 MEQ/L
- SODIUM [4]: 143 MEQ/L
- TOTAL BILIRUBIN [4]: 0.17 mg/dL
- TOTAL PROTEIN [4]: 5.9 G/DL
- URIC ACID [4]: 1.3 mg/dL
